Results as given in ChEMBL document CHEMBL1201862, “PubChem BioAssay data set” (2004).
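Protocol summary: plate cells (96-well), add compound at 5 concentrations, incubate 48 h, interpolate endpoints linearly. GI50 marks 50% less growth.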 Activity calls are given as the source filed them. Rule as the data show it: active = GI50 up to about 1.1 µM and inactive = higher.

How the values were obtained:
Test in all cases: inhibition of tumour cell growth, NCI panel, 48 h
NCI/ADR-RES = test system: NCI/ADR-RES
HOP-62 = test system: HOP-62
MOLT-4 = test system: MOLT-4
NCI-H522 = test system: NCI-H522
IGROV-1 = test system: IGROV-1
MCF7 = test system: MCF7
UACC-62 = test system: UACC-62
SK-MEL-5 = test system: SK-MEL-5
KM12 = test system: KM12
SF-268 = test system: SF-268
TK-10 = test system: TK-10
COLO 205 = test system: COLO 205
OVCAR-5 = test system: OVCAR-5
HT-29 = test system: HT-29
HL-60 = test system: HL-60
UACC-257 = test system: UACC-257
T47D = test system: T47D
SF-295 = test system: SF-295
MDA-MB-231 = test system: MDA-MB-231
OVCAR-3 = test system: OVCAR-3
K562 = test system: K562
SN12C = test system: SN12C
SW-620 = test system: SW-620
MDA-N = test system: MDA-N
A498 = test system: A498
NCI-H460 = test system: NCI-H460
U-251 = test system: U-251
MDA-MB-435 = test system: MDA-MB-435
RXF 393 = test system: RXF 393
HCT-15 = test system: HCT-15
ACHN = test system: ACHN
CAKI-1 = test system: CAKI-1
786-0 = test system: 786-0
SK-OV-3 = test system: SK-OV-3
HCC 2998 = test system: HCC 2998
LOX IMVI = test system: LOX IMVI
DU-145 = test system: DU-145
SF-539 = test system: SF-539
HCT-116 = test system: HCT-116
NCI-H23 = test system: NCI-H23
Hs-578T = test system: Hs-578T
SNB-19 = test system: SNB-19
OVCAR-4 = test system: OVCAR-4
HOP-92 = test system: HOP-92
OVCAR-8 = test system: OVCAR-8
CCRF-CEM = test system: CCRF-CEM
RPMI-8226 = test system: RPMI-8226
Malme-3M = test system: Malme-3M
NCI-H226 = test system: NCI-H226
A549 = test system: A549
SK-MEL-28 = test system: SK-MEL-28
SR = test system: SR
SNB-75 = test system: SNB-75
EKVX = test system: EKVX
M14 = test system: M14
PC-3 = test system: PC-3
SK-MEL-2 = test system: SK-MEL-2
UO-31 = test system: UO-31

Measured: GI50

CCN(CC)/[N+]([O-])=N/OS(=O)(=O)N(C)C
> 100 µM: HCT-15
inactive: NCI/ADR-RES > 100 µM | HOP-62 > 100 µM | MOLT-4 > 100 µM | NCI-H522 > 100 µM | IGROV-1 > 100 µM | MCF7 > 100 µM | UACC-62 > 100 µM | SK-MEL-5 > 100 µM | KM12 > 100 µM | SF-268 > 100 µM | TK-10 > 100 µM | COLO 205 > 100 µM | OVCAR-5 > 100 µM | HT-29 > 100 µM | HL-60 > 100 µM | UACC-257 > 100 µM | T47D > 100 µM | SF-295 > 100 µM | MDA-MB-231 > 100 µM | OVCAR-3 > 100 µM | K562 > 100 µM | SN12C > 100 µM | SW-620 > 100 µM | MDA-N > 100 µM | A498 > 100 µM | NCI-H460 > 100 µM | U-251 > 100 µM | MDA-MB-435 > 100 µM | RXF 393 > 100 µM | ACHN > 100 µM | CAKI-1 > 100 µM | 786-0 > 100 µM | SK-OV-3 > 100 µM | HCC 2998 > 100 µM | LOX IMVI > 100 µM | DU-145 > 100 µM | SF-539 > 100 µM | HCT-116 > 100 µM | NCI-H23 > 100 µM | Hs-578T > 100 µM | SNB-19 > 100 µM | OVCAR-4 > 100 µM | HOP-92 > 100 µM | OVCAR-8 > 100 µM | CCRF-CEM > 100 µM | RPMI-8226 > 100 µM | Malme-3M > 100 µM | NCI-H226 > 100 µM | A549 > 100 µM | SK-MEL-28 > 100 µM | SR > 100 µM | SNB-75 > 100 µM | EKVX > 100 µM | M14 > 100 µM

COC(=O)c1ccccc1/C=C1\Cc2cc(C)cc(C)c2C1=O
inactive: HOP-62 37.2 µM | MOLT-4 > 100 µM | NCI-H522 5.46 µM | IGROV-1 > 100 µM | MCF7 > 100 µM | UACC-62 53.5 µM | SK-MEL-5 > 100 µM | KM12 > 100 µM | SF-268 > 100 µM | TK-10 > 100 µM | OVCAR-5 > 100 µM | HT-29 > 100 µM | HL-60 > 100 µM | UACC-257 > 100 µM | T47D > 100 µM | SF-295 > 100 µM | MDA-MB-231 > 100 µM | OVCAR-3 > 100 µM | K562 > 100 µM | SN12C > 100 µM | SW-620 > 100 µM | MDA-N > 100 µM | A498 > 100 µM | NCI-H460 > 100 µM | U-251 > 100 µM | RXF 393 > 100 µM | PC-3 > 100 µM | ACHN > 100 µM | 786-0 57.4 µM | HCC 2998 > 100 µM | LOX IMVI > 100 µM | DU-145 > 100 µM | SF-539 > 100 µM | HCT-116 > 100 µM | NCI-H23 > 100 µM | Hs-578T > 100 µM | SNB-19 72.4 µM | OVCAR-8 > 100 µM | CCRF-CEM > 100 µM | RPMI-8226 > 100 µM | Malme-3M > 100 µM | NCI-H226 > 100 µM | A549 > 100 µM | SK-MEL-28 > 100 µM | SR > 100 µM | SK-MEL-2 > 100 µM | SNB-75 72.4 µM | EKVX > 100 µM
> 100 µM: HCT-15

COC1CC(COCc2ccccc2)CC(OC)O1 (stereo not drawn)
> 100 µM: HCT-15
active: HL-60 < 0.01 µM | CCRF-CEM 0.0198 µM
inactive: NCI/ADR-RES > 100 µM | HOP-62 > 100 µM | MOLT-4 > 100 µM | NCI-H522 > 100 µM | MCF7 > 100 µM | UACC-62 > 100 µM | SK-MEL-5 > 100 µM | KM12 > 100 µM | SF-268 > 100 µM | TK-10 > 100 µM | COLO 205 > 100 µM | OVCAR-5 > 100 µM | HT-29 > 100 µM | UACC-257 > 100 µM | T47D > 100 µM | SF-295 > 100 µM | OVCAR-3 > 100 µM | K562 > 100 µM | SN12C > 100 µM | SW-620 > 100 µM | MDA-N > 100 µM | A498 > 100 µM | NCI-H460 > 100 µM | MDA-MB-435 > 100 µM | RXF 393 > 100 µM | ACHN > 100 µM | CAKI-1 > 100 µM | 786-0 > 100 µM | SK-OV-3 > 100 µM | HCC 2998 > 100 µM | LOX IMVI 64 µM | DU-145 > 100 µM | SF-539 > 100 µM | HCT-116 > 100 µM | NCI-H23 > 100 µM | Hs-578T > 100 µM | HOP-92 > 100 µM | OVCAR-8 > 100 µM | UO-31 > 100 µM | RPMI-8226 > 100 µM | NCI-H226 > 100 µM | A549 > 100 µM | SR > 100 µM | SNB-75 > 100 µM | EKVX > 100 µM | M14 > 100 µM
